Our source for the Ki values is ChEMBL document CHEMBL1135861, “The discovery of novel small molecule non-peptide gonadotropin releasing hormone (GnRH) receptor antagonists” (Bioorg Med Chem Lett, 2002).

Experiment [1] concerns the target T1, Gonadotropin-releasing hormone receptor (Rattus norvegicus, UniProt P30969).
T1 sequence (P30969 whole entry): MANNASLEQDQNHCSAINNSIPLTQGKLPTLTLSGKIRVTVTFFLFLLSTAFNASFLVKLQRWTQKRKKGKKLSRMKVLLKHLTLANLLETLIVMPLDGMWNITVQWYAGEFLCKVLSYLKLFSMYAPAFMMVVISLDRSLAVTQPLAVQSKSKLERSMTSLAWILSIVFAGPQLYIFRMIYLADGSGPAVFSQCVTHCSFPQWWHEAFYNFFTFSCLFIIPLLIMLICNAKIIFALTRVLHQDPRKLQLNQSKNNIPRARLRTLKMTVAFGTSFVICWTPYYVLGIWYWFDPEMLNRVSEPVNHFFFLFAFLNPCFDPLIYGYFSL
The experiment in a line: Binding affinity to rat gonadotropin-releasing hormone receptor.

Experiment [2] addresses T2, Gonadotropin-releasing hormone receptor (Homo sapiens, UniProt P30968).
T2 sequence (P30968 whole entry): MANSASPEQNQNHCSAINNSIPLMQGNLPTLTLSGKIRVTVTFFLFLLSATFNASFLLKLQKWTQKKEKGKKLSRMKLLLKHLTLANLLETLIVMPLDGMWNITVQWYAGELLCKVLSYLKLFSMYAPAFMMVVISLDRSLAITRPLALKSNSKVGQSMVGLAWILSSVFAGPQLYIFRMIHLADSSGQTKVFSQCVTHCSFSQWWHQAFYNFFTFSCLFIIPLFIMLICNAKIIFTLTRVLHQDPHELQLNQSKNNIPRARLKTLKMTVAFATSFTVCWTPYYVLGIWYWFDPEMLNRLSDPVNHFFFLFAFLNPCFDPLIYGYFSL
The experiment in a line: In vitro binding affinity to human gonadotropin-releasing hormone receptor.

For orientation: Ki means the dissociation constant of the complex between target and ligand, obtained from inhibition or displacement. A high value points to weaker binding.

With `Cc1cc2c(cc1Cc1ccc(C(=O)NCC3CCC(CNCc4cc(=O)[nH]c(=O)[nH]4)CC3)o1)C(C)(C)CCC2(C)C` (stereo not drawn), the inhibition constant (Ki) stood at 865 nM in experiment [1] and 24 nM in experiment [2].

For `Cc1cc2c(cc1Cc1ccc(C(=O)NC[C@H]3CC[C@@H](CNC(=N)N)CC3)o1)C(C)(C)CCC2(C)C`, the inhibition constant Ki in experiment [1] turned out to be 730 nM; in experiment [2], 40 nM.

In the case of `COC(=O)[C@H]1CC[C@H](CNC(=O)c2ccc(Cc3cc4c(cc3C)C(C)(C)CCC4(C)C)o2)CC1`, the values for the Ki in experiment [1] and in experiment [2] were 830 nM and 24 nM, respectively.

In the case of `Cc1cc2c(cc1Cc1ccc(C(=O)NC[C@H]3CC[C@H](C(N)=O)CC3)o1)C(C)(C)CCC2(C)C`, the inhibitory constant (Ki) in experiment [1] amounted to 270 nM; in experiment [2], 13 nM.

As to `Cc1cc2c(cc1Cc1ccc(C(=O)NCC3CCC(CN)CC3)o1)C(C)(C)CCC2(C)C` (stereo not drawn), the results for the Ki in experiment [1] and in experiment [2] were 730 nM and 42 nM, respectively.

Turning to `Cc1cc2c(cc1Cc1ccc(C(=O)NCC3CCCC(CN)C3)o1)C(C)(C)CCC2(C)C` (stereo not drawn), the Ki stood at 890 nM in experiment [1] and 174 nM in experiment [2].

For `Cc1ccc(CNC(=O)c2ccc(Cc3cc4c(cc3C)C(C)(C)CCC4(C)C)o2)cc1`, the inhibitory constant (Ki) came out at 60 nM in experiment [1] and 83 nM in experiment [2].

Take `Cc1cc2c(cc1Cc1ccc(C(=O)NCc3ccc(CN)cc3)o1)C(C)(C)CCC2(C)C`: the figures for the inhibition constant (Ki) in experiment [1] and in experiment [2] were 280 nM and 140 nM, respectively.

Consider `CCOC(=O)[C@H]1CC[C@H](CNC(=O)c2ccc(Cc3cc4c(cc3C)C(C)(C)CCC4(C)C)o2)CC1`, for which the figures for the Ki in experiment [1] and in experiment [2] were 2730 nM and 51 nM, respectively.

As for `Cc1cc2c(cc1Cc1ccc(C(=O)NCC3CCNCC3)o1)C(C)(C)CCC2(C)C`, the values for the Ki in experiment [1] and in experiment [2] were 5210 nM and 700 nM, respectively.

With `Cc1cc2c(cc1Cc1ccc(C(=O)NCC3CCC(CNC(=N)N)CC3)o1)C(C)(C)CCC2(C)C` (stereo not drawn), the values for the Ki in experiment [1] and in experiment [2] were 520 nM and 40 nM, respectively.

`Cc1cc2c(cc1Cc1ccc(C(=O)NCC3CCC(CNC(=O)C(F)(F)F)CC3)o1)C(C)(C)CCC2(C)C` (stereo not drawn): the inhibitory constant (Ki) in experiment [1] was 2720 nM; in experiment [2], 66 nM.

Turning to `Cc1cnc(CNC(=O)c2ccc(Cc3cc4c(cc3C)C(C)(C)CCC4(C)C)o2)cn1`, the results for the Ki in experiment [1] and in experiment [2] were 55 nM and 56 nM, respectively.

`Cc1cc2c(cc1Cc1ccc(C(=O)NC[C@H]3CC[C@H](CNC(=N)N)CC3)o1)C(C)(C)CCC2(C)C`: the Ki in experiment [1] was 385 nM; in experiment [2] it was 16 nM.

With `Cc1cc2c(cc1Cc1ccc(C(=O)NCC3CCN(C(=N)N)CC3)o1)C(C)(C)CCC2(C)C`, the figures for the Ki in experiment [1] and in experiment [2] were 2040 nM and 220 nM, respectively.

For `Cc1cc2c(cc1Cc1ccc(C(=O)NC[C@H]3CC[C@H](C(=O)O)CC3)o1)C(C)(C)CCC2(C)C`, the Ki in experiment [1] was determined as 3000 nM; in experiment [2], 250 nM.

For the compound `Cc1cc2c(cc1Cc1ccc(C(=O)NCc3cccc(CN)c3)o1)C(C)(C)CCC2(C)C`, the Ki was found to be 94 nM in experiment [1] and 91 nM in experiment [2].

For `Cc1cc2c(cc1Cc1ccc(C(=O)NCc3ccccc3)o1)C(C)(C)CCC2(C)C`, the inhibition constant Ki in experiment [1] worked out at 240 nM; in experiment [2] it was 102 nM.

Take `Cc1cc2c(cc1Cc1ccc(C(=O)NCC3CCN(C(=O)OC(C)(C)C)CC3)o1)C(C)(C)CCC2(C)C`: the Ki in experiment [1] came out at 3260 nM; in experiment [2], 54 nM.

With `Cc1cc2c(cc1Cc1ccc(C(=O)NCC3CCCCC3)o1)C(C)(C)CCC2(C)C`, the inhibitory constant (Ki) in experiment [1] turned out to be 1550 nM; in experiment [2], 180 nM.

For `Cc1cc2c(cc1Cc1ccc(C(=O)NCC3CCCC(CNC(=O)C(F)(F)F)C3)o1)C(C)(C)CCC2(C)C` (stereo not drawn), the inhibitory constant (Ki) turned out to be 250 nM in experiment [1] and 20 nM in experiment [2].

Take `Cc1cc2c(cc1Cc1ccc(C(=O)NCC3CCC(C#N)CC3)o1)C(C)(C)CCC2(C)C` (stereo not drawn): the results for the Ki in experiment [1] and in experiment [2] were 560 nM and 17 nM, respectively.

Consider `Cc1cc2c(cc1Cc1ccc(C(=O)NCC3CCC(CNCc4c(C)noc4C)CC3)o1)C(C)(C)CCC2(C)C` (stereo not drawn), for which the Ki turned out to be 1200 nM in experiment [1] and 180 nM in experiment [2].

As for `Cc1cc2c(cc1Cc1ccc(C(=O)NCc3ccc(CN(C)C)cc3)o1)C(C)(C)CCC2(C)C`, the inhibition constant (Ki) was 140 nM in experiment [1] and 79 nM in experiment [2].
